In patent USRE50528E1, “Compounds and compositions for modulating EGFR mutant kinase activities” (Yuhan Corporation, priority 2014, dated 2025):

Key:
[1] = target: T1, EGFR mutant T790M (Homo sapiens, UniProt P00533, T790M); assay: Kinase inhibition assay, EGFR mutant T790M; details: biochemical potency;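 further: truncated human EGFR mutant enzyme preincubated two hours with compound, then ATP plus ULight-PolyGT peptide for one hour, Europium-labeled antibody LANCE detection, IC50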
T1 construct: truncated human JAK3, EGFR mutants such as del E746-A750; purchased Carna Biosciences
T1 sequence (P00533 669-1210 T790M limits assumed): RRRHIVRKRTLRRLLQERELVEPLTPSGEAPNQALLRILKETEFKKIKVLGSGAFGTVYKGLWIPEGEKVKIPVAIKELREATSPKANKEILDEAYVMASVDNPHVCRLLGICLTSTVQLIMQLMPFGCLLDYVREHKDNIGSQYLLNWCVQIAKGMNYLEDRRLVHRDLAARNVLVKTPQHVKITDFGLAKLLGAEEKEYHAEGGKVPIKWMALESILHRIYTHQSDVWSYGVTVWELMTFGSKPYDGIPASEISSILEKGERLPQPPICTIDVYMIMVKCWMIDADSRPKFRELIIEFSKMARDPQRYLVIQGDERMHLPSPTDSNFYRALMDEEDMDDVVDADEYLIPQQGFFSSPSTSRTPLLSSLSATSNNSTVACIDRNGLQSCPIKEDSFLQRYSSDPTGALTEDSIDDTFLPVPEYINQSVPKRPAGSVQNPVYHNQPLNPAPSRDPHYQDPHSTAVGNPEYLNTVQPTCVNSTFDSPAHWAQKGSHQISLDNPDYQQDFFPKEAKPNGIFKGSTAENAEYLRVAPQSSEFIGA

[2] = target: T2, EGFR mutant Del19 (E746-A750) (Homo sapiens, UniProt P00533, DEL746-750); assay: Kinase inhibition assay, EGFR del E746-A750; assay type: biochemical; details: read-out: EGFR mutants Del19 (E746-A750);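 further: truncated human EGFR mutant kinase, two-hour preincubation with compound, then one-hour reaction with ATP and ULight-PolyGT peptide, LANCE Europium-antibody phosphorylation readout, IC50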
T2 construct: truncated human JAK3, EGFR mutants such as del E746-A750; purchased Carna Biosciences
T2 sequence (P00533 with tags, fused parts or gaps DEL746-750 limits assumed): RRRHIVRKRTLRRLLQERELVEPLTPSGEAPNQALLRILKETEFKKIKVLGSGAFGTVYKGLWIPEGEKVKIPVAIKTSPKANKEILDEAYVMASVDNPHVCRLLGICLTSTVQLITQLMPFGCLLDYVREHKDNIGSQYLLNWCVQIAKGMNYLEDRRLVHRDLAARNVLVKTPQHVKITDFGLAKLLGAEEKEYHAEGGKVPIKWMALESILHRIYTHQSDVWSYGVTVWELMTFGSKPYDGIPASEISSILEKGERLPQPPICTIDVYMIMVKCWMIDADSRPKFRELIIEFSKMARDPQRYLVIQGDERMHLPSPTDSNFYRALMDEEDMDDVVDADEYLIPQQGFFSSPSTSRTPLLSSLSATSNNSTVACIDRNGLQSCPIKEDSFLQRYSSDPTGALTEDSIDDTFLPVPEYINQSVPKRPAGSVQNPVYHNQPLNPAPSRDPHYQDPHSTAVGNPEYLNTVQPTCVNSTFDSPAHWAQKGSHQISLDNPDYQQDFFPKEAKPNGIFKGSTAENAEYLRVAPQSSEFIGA

[3] = target: T3, EGFR mutant L858R (Homo sapiens, UniProt P00533, L858R); assay: Kinase inhibition assay, EGFR L858R; assay type: biochemical; details: read-out: EGFR mutants L858R;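 further: truncated human EGFR L858R kinase with compound preincubation, ULight-PolyGT peptide phosphorylation read by Europium-antibody Lance detection, IC50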
T3 construct: truncated human JAK3, EGFR mutants such as del E746-A750; purchased Carna Biosciences
T3 sequence (P00533 669-1210 L858R limits assumed): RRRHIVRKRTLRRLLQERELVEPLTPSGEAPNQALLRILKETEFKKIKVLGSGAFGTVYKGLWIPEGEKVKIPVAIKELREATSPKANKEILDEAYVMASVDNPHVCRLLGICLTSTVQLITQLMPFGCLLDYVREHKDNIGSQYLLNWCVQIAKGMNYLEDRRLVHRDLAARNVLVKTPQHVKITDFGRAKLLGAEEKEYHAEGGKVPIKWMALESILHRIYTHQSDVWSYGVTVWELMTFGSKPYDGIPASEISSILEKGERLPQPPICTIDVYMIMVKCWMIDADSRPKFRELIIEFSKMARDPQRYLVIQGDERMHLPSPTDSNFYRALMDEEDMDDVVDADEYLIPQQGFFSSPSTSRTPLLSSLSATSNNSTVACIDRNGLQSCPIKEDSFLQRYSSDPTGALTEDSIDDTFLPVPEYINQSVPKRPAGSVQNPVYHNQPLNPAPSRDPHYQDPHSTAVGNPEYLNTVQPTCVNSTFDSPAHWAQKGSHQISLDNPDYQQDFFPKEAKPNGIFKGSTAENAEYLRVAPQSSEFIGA

[4] = target: T4, EGFR mutant L858R/T790M (Homo sapiens, UniProt P00533, L858R/T790M); assay: Kinase inhibition assay, EGFR L858R/T790M; assay type: biochemical; details: read-out: EGFR mutants L858R/T790M;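 further: truncated human enzyme preincubated two hours with compound, then one hour with one millimolar ATP and ULight-PolyGT peptide, Europium-labeled antibody detection, IC50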
T4 construct: truncated human JAK3, EGFR mutants such as del E746-A750; purchased Carna Biosciences
T4 sequence (P00533 669-1210 T790M/L858R limits assumed): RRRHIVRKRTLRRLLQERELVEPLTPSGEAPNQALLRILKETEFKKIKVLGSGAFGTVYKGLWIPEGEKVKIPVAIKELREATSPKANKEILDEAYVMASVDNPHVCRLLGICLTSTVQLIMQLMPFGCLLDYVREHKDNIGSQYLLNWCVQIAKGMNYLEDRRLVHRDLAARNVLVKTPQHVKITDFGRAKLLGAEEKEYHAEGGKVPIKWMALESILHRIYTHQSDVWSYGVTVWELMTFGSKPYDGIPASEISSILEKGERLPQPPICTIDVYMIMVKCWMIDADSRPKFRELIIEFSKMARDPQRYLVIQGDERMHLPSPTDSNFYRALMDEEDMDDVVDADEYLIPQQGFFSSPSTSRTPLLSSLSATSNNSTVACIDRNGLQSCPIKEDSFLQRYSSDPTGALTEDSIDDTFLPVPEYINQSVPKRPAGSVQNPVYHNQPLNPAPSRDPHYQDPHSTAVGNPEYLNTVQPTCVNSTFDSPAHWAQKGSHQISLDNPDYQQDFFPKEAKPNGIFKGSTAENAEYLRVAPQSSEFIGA

[5] = target: T5, EGFR mutant Del19/T790M (Homo sapiens, UniProt P00533, DEL746-750/T790M); assay: Kinase inhibition assay, EGFR del E746-A750/T790M; assay type: biochemical; details: read-out: EGFR mutants Del19/T790M
T5 construct: truncated human JAK3, EGFR mutants such as del E746-A750; purchased Carna Biosciences
T5 sequence (P00533 with tags, fused parts or gaps DEL746-750/T790M limits assumed): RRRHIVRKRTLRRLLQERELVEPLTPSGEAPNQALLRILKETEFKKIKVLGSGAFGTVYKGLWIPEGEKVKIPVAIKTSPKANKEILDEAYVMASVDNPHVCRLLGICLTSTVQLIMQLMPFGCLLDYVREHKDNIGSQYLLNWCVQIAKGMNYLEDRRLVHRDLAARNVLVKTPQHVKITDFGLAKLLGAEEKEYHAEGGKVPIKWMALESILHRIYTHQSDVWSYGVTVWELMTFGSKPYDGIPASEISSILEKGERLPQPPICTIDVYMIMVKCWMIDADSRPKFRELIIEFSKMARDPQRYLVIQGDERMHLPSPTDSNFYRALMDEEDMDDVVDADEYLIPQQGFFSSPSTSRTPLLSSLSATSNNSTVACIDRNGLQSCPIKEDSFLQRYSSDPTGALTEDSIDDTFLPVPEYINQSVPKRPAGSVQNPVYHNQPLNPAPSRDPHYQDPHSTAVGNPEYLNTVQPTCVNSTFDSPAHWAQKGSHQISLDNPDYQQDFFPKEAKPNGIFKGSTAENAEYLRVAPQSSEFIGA

[6] = target: T6, SYK (Homo sapiens, UniProt P43405); assay: Kinase inhibition assay, SYK; assay type: biochemical; details: biochemical potency;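 further: purified full-length human SYK pre-incubated 30 min with compound, then ULight-TK peptide phosphorylation for 1 h, detected with Europium-labeled antibody in Lance buffer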
T6 construct: Purified human, full-length SYK, KDR; purchased Carna Biosciences

SMILES	IC50 [1] [nM]	IC50 [2] [nM]	IC50 [3] [nM]	IC50 [4] [nM]	IC50 [5] [nM]	IC50 [6] [nM]
C=CC(=O)Nc1cc(Nc2nccc(-n3cc(CN(C)C)c(C(C)C)n3)n2)c(OC)cc1N(C)C1COC1 [Compound 114, N-(5-(4-(4-((dimethylamino)methyl)-3-isopropyl-1H-pyrazol-1-yl)pyrimidin-2-ylamino)-4-methoxy-2-(methyl(oxetan-3-yl)amino)phenyl)acrylamide]	< 20	< 20	< 20	< 20	< 20	201 to 1000
C=CC(=O)Nc1cc(Nc2nccc(-n3cc(CN4CCC4)c(C(C)C)n3)n2)c(OC)cc1N(C)C1COC1 [Compound 115]	< 20	< 20	< 20	< 20	< 20	> 1000
C=CC(=O)Nc1cc(Nc2nccc(-n3cc(CN4CCC4)c(C(C)C)n3)n2)c(OC)cc1N1CCOCC1 [Compound 119, N-(5-(4-(4-(azetidin-1-ylmethyl)-3-isopropyl-1H-pyrazol-1-yl)pyrimidin-2-ylamino)-4-methoxy-2-morpholinophenyl)acrylamide]	< 20	< 20	< 20	< 20	< 20	201 to 1000
C=CC(=O)Nc1cc(Nc2ncc(C)c(-n3cc(CN(C)C)c(-c4ccccc4)n3)n2)c(OC)cc1N1CCOCC1 [Compound 120, N-(5-(4-(4-((dimethylamino)methyl)-3-phenyl-1H-pyrazol-1-yl)-5-methylpyrimidin-2-ylamino)-4-methoxy-2-morpholinophenyl)acrylamide]	< 20	< 20	< 20	< 20	< 20	20 to 200
C=CC(=O)Nc1cc(Nc2nccc(-n3cc(CN(C)C)c(C4CC4)n3)n2)c(OC)cc1N1CCN(C(C)=O)CC1 [Compound 129, N-(2-(4-acetylpiperazin-1-yl)-5-(4-(3-cyclopropyl-4-((dimethylamino)methyl)-1H-pyrazol-1-yl)pyrimidin-2-ylamino)-4-methoxyphenyl)acrylamide]	< 20	< 20	< 20	< 20	< 20	201 to 1000
C=CC(=O)Nc1cc(Nc2ncc(F)c(-n3cc(CN(C)C)c(-c4ccoc4)c3)n2)c(OC)cc1N1CCOCC1 [Compound 131, N-(5-(4-(3-((dimethylamino)methyl)-4-(furan-3-yl)-1H-pyrrol-1-yl)-5-fluoropyrimidin-2-ylamino)-4-methoxy-2-morpholinophenyl)acrylamide]	< 20	< 20	< 20	< 20	< 20	201 to 1000

Continued, values first:

IC50 [1] [nM]	IC50 [2] [nM]	IC50 [3] [nM]	IC50 [4] [nM]	IC50 [5] [nM]	IC50 [6] [nM]	SMILES
< 20	< 20	< 20	< 20	< 20	> 1000	C=CC(=O)Nc1cc(Nc2nccc(-n3cc(CN4CCC4)c(C4CC4)n3)n2)c(OC)cc1N(C)C1COC1 [Compound 109, N-(5-(4-(4-(azetidin-1-ylmethyl)-3-cyclopropyl-1H-pyrazol-1-yl)pyrimidin-2-ylamino)-4-methoxy-2-(methyl(oxetan-3-yl)amino)phenyl)acrylamide]
< 20	< 20	< 20	< 20	< 20	201 to 1000	C=CC(=O)Nc1cc(Nc2nccc(-n3cc(CN(C)C)c(-c4ccoc4)n3)n2)c(OC)cc1N1CCOCC1 [Compound 127, N-(5-(4-(4-((dimethylamino)methyl)-3-(furan-3-yl)-1H-pyrazol-1-yl)pyrimidin-2-ylamino)-4-methoxy-2-morpholinophenyl)acrylamide]
< 20	< 20	< 20	< 20	< 20	201 to 1000	C=CC(=O)Nc1cc(Nc2ncc(F)c(-n3cc(CN4CCC4)c(-c4ccoc4)c3)n2)c(OC)cc1N1CCOCC1 [Compound 130, N-(5-(4-(3-(azetidin-1-ylmethyl)-4-(furan-3-yl)-1H-pyrrol-1-yl)-5-fluoropyrimidin-2-ylamino)-4-methoxy-2-morpholinophenyl)acrylamide]
